Results: PubChem BioAssay AID256 (DTP/NCI, 2004)
Several values for one entry are separate records, joined by “and”; a condition that tells them apart may be missing. Equal values may be shown once. Toxic doses and inconclusive results are not listed. The calls were made as follows: active = survival T/C of 150% or more; inactive = T/C below 125% in these data.

System: CD2F1 mice, L1210 leukemia ip, survival T/C
Assay: NCI In Vivo Anticancer Drug Screen. Data for tumor model L1210 Leukemia (intraperitoneal) in CD2F1 (CDF1) mice
Details: higher = longer survival
Summary of the method: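 Compound-dosed mice with transplantable tumor versus matched vehicle controls; endpoint ratio T/C reported.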

[1] = endpoint: mean survival time, dose: 25.0 mg/kg/injection, schedule: Q01DX009 (ip), vehicle: saline with Tween-80
[2] = endpoint: mean survival time, dose: 25.0 mg/kg/injection, schedule: Q04DX003 (ip), vehicle: saline with Tween-80
[3] = endpoint: mean survival time, dose: 50.0 mg/kg/injection, schedule: Q01DX009 (ip), vehicle: saline with Tween-80
[4] = endpoint: mean survival time, dose: 50.0 mg/kg/injection, schedule: Q04DX003 (ip), vehicle: saline with Tween-80
[5] = endpoint: mean survival time, dose: 75.0 mg/kg/injection, schedule: Q01DX001 (ip), vehicle: saline
[6] = endpoint: mean survival time, dose: 150.0 mg/kg/injection, schedule: Q01DX001 (ip), vehicle: saline
[7] = endpoint: mean survival time, dose: 100.0 mg/kg/injection, schedule: Q04DX003 (ip), vehicle: saline with Tween-80
[8] = endpoint: mean survival time, dose: 200.0 mg/kg/injection, schedule: Q04DX003 (ip), vehicle: saline with Tween-80
[9] = endpoint: mean survival time, dose: 400.0 mg/kg/injection, schedule: Q04DX003 (ip), vehicle: saline with Tween-80
[10] = endpoint: mean survival time, dose: 100.0 mg/kg/injection, schedule: Q01DX009 (ip), vehicle: saline with Tween-80
[11] = endpoint: mean survival time, dose: 200.0 mg/kg/injection, schedule: Q01DX009 (ip), vehicle: saline with Tween-80
[12] = endpoint: mean survival time, dose: 400.0 mg/kg/injection, schedule: Q01DX009 (ip), vehicle: saline with Tween-80
[13] = endpoint: mean survival time, dose: 100.0 mg/kg/injection, schedule: Q04DX003 (ip), vehicle: saline
[14] = endpoint: mean survival time, dose: 200.0 mg/kg/injection, schedule: Q04DX002 (ip), vehicle: saline with Tween-80
[15] = endpoint: mean survival time, dose: 25.0 mg/kg/injection, schedule: Q01DX001 (ip), vehicle: saline with Tween-80
[16] = endpoint: mean survival time, dose: 50.0 mg/kg/injection, schedule: Q01DX001 (ip), vehicle: saline with Tween-80
[17] = endpoint: mean survival time, dose: 100.0 mg/kg/injection, schedule: Q01DX001 (ip), vehicle: saline with Tween-80

Measured: T/C

COc1ccc2c(c1)CCC1C2=CC(=O)/C1=C\[O-].COc1ccc2c(c1)CCC1C2=CC(=O)/C1=C\[O-].[Cu+2] (configuration not stated)
inactive: endpoint: mean survival time, dose: 12.5 mg/kg/injection, schedule: Q01DX009 (ip), vehicle: saline with Tween-80 92 % of control | endpoint: mean survival time, dose: 12.5 mg/kg/injection, schedule: Q04DX003 (ip), vehicle: saline with Tween-80 93 % of control | [1] 95 % of control | [2] 93 % of control | [3] 94 % of control | [4] 96 % of control

Nc1ncnc2c1ncn2C1OC(CF)C(O)C1O (configuration not stated)
inactive: endpoint: mean survival time, dose: 100.0 mg/kg/injection, schedule: Q01DX001 (ip), vehicle: saline 104 % of control | endpoint: mean survival time, dose: 200.0 mg/kg/injection, schedule: Q01DX001 (ip), vehicle: saline 98 % of control

COC(=O)C1OC(Sc2ncnc3nc[nH]c23)C(O)C(O)C1O (configuration not stated)
inactive: endpoint: median survival time, dose: 25.0 mg/kg/injection, schedule: Q01DX005 (ip), vehicle: water 98 % of control | endpoint: median survival time, dose: 50.0 mg/kg/injection, schedule: Q01DX005 (ip), vehicle: water 109 % of control | endpoint: median survival time, dose: 100.0 mg/kg/injection, schedule: Q01DX005 (ip), vehicle: water 109 % of control | endpoint: median survival time, dose: 200.0 mg/kg/injection, schedule: Q01DX005 (ip), vehicle: water 113 % of control and 118 % of control | endpoint: median survival time, dose: 400.0 mg/kg/injection, schedule: Q01DX005 (ip), vehicle: water 119 % of control

COc1cc2cc(c1Cl)N(C)C(=O)CC(OC(=O)C(C)C)C1(C)OC1C(C)C1CC(O)(NC(=O)O1)C(OC)/C=C/C=C(C)C2 (configuration not stated)
inactive: endpoint: mean survival time, dose: 3.8 micrograms/kg/injection, schedule: Q01DX009 (ip), vehicle: saline + alcohol 100 % of control | endpoint: mean survival time, dose: 7.5 micrograms/kg/injection, schedule: Q01DX009 (ip), vehicle: saline + alcohol 97 % of control | endpoint: mean survival time, dose: 15.0 micrograms/kg/injection, schedule: Q01DX009 (ip), vehicle: saline + alcohol 114 % of control | endpoint: mean survival time, dose: 30.0 micrograms/kg/injection, schedule: Q01DX009 (ip), vehicle: saline + alcohol 111 % of control | endpoint: mean survival time, dose: 60.0 micrograms/kg/injection, schedule: Q01DX009 (ip), vehicle: saline + alcohol 111 % of control

CN(N)C1CCCCC1
inactive: [5] 100 % of control | [6] 100 % of control

CC1(C)CN(c2ccccc2)NC1=O
inactive: endpoint: mean survival time, dose: 1.25 mg/kg/injection, schedule: Q01DX009 (ip), vehicle: Klucel (hydroxypropylcellulose) (HPC) 101 % of control | endpoint: mean survival time, dose: 2.5 mg/kg/injection, schedule: Q01DX009 (ip), vehicle: Klucel (hydroxypropylcellulose) (HPC) 98 % of control | endpoint: mean survival time, dose: 5.0 mg/kg/injection, schedule: Q01DX009 (ip), vehicle: Klucel (hydroxypropylcellulose) (HPC) 101 % of control

NC(CCC(=O)NC(=O)OCc1ccccc1)C(=O)O (configuration not stated)
inactive: [7] 93 % of control | [8] 101 % of control | [9] 90 % of control

OCC1OC(c2[nH]nc3c(NO)ncnc23)C(O)C1O (configuration not stated)
inactive: [5] 107 % of control | [6] 107 % of control

OC(C/C(=N\Nc1ccccc1)c1ccc(F)cc1)(C(F)(F)F)C(F)(F)F
inactive: [7] 100 % of control | [8] 98 % of control | [9] 96 % of control

Nc1nn[nH]n1
inactive: [10] 95 % of control | [11] 90 % of control | [12] 94 % of control

CCCCNCCCC
inactive: [13] 97 % of control

CCN(C(=O)Nc1cc([N+](=O)[O-])ccc1C)c1cc(C)ccc1OC
inactive: [10] 88 % of control | [11] 94 % of control | [12] 94 % of control

CCOC(=O)C(CC)CO (configuration not stated)
inactive: [13] 105 % of control | endpoint: mean survival time, dose: 200.0 mg/kg/injection, schedule: Q04DX003 (ip), vehicle: saline 103 % of control | endpoint: mean survival time, dose: 400.0 mg/kg/injection, schedule: Q04DX003 (ip), vehicle: saline 103 % of control

FC(F)(F)c1nn[nH]n1
inactive: endpoint: mean survival time, dose: 100.0 mg/kg/injection, schedule: Q01DX009 (ip), vehicle: saline 100 % of control | endpoint: mean survival time, dose: 200.0 mg/kg/injection, schedule: Q01DX009 (ip), vehicle: saline 104 % of control | endpoint: mean survival time, dose: 400.0 mg/kg/injection, schedule: Q01DX009 (ip), vehicle: saline 98 % of control

CCOC(=O)c1ccc(NC(=O)CCOc2ccccc2)cc1
inactive: [10] 92 % of control and 101 % of control | endpoint: mean survival time, dose: 100.0 mg/kg/injection, schedule: Q04DX002 (ip), vehicle: saline with Tween-80 91 % of control | [7] 86 % of control | [11] 92 % of control and 96 % of control | [14] 86 % of control and 87 % of control | [8] 86 % of control | [12] 89 % of control and 95 % of control | endpoint: mean survival time, dose: 400.0 mg/kg/injection, schedule: Q04DX002 (ip), vehicle: saline with Tween-80 94 % of control

O=C(O)CNC(=O)C(CSC(c1ccccc1)(c1ccccc1)c1ccccc1)NC(c1ccccc1)(c1ccccc1)c1ccccc1 (configuration not stated)
inactive: [5] 97 % of control

COc1cccc(CC2NCCc3c2[nH]c2ccccc32)c1 (configuration not stated)
inactive: [15] 98 % of control | [16] 90 % of control | [17] 87 % of control

Nc1nc(=O)n(CCCOc2ccc([N+](=O)[O-])c(Cl)c2)cc1-c1ccc(Cl)c(Cl)c1
inactive: endpoint: mean survival time, dose: 200.0 mg/kg/injection, schedule: Q01DX001 (ip), vehicle: saline with Tween-80 90 % of control

CCOC(=O)c1ccc(NC(=O)Oc2cc3ccccc3cc2C(=O)Nc2ccccc2)cc1
inactive: [15] 87 % of control | [1] 94 % of control and 96 % of control | endpoint: mean survival time, dose: 25.0 mg/kg/injection, schedule: Q04DX002 (ip), vehicle: saline with Tween-80 97 % of control | [2] 96 % of control and 98 % of control | [16] 87 % of control | [3] 88 % of control and 92 % of control | endpoint: mean survival time, dose: 50.0 mg/kg/injection, schedule: Q04DX002 (ip), vehicle: saline with Tween-80 88 % of control and 92 % of control | [4] 88 % of control and 92 % of control | [17] 87 % of control | [10] 91 % of control and 96 % of control | [7] 92 % of control | [14] 87 % of control | [8] 92 % of control and 93 % of control

CCOC1(OCC)C2C=CC1C1C(=O)OC(=O)C12 (configuration not stated)
inactive: [5] 103 % of control | [6] 108 % of control | endpoint: mean survival time, dose: 300.0 mg/kg/injection, schedule: Q01DX001 (ip), vehicle: saline 102 % of control

COC(=O)/C=C/c1ccc(OC(=O)c2ccccc2)cc1
inactive: [10] 95 % of control | [11] 96 % of control | [12] 98 % of control

CC(CC(=O)c1ccccc1)=Nc1ccccc1.CC(CC(=O)c1ccccc1)=Nc1ccccc1.[O]=[V]
inactive: endpoint: mean survival time, dose: 50.0 mg/kg/injection, schedule: Q01DX001 (ip), vehicle: Klucel (hydroxypropylcellulose) (HPC) 96 % of control | endpoint: mean survival time, dose: 100.0 mg/kg/injection, schedule: Q01DX001 (ip), vehicle: Klucel (hydroxypropylcellulose) (HPC) 88 % of control | endpoint: mean survival time, dose: 200.0 mg/kg/injection, schedule: Q01DX001 (ip), vehicle: Klucel (hydroxypropylcellulose) (HPC) 94 % of control | endpoint: mean survival time, dose: 400.0 mg/kg/injection, schedule: Q01DX001 (ip), vehicle: Klucel (hydroxypropylcellulose) (HPC) 93 % of control | endpoint: mean survival time, dose: 800.0 mg/kg/injection, schedule: Q01DX001 (ip), vehicle: Klucel (hydroxypropylcellulose) (HPC) 90 % of control

CCCCCCC(O)CCCCCC
inactive: endpoint: mean survival time, dose: 100.0 mg/kg/injection, schedule: Q01DX009 (ip), vehicle: other 96 % of control | endpoint: mean survival time, dose: 100.0 mg/kg/injection, schedule: Q04DX003 (ip), vehicle: other 100 % of control | endpoint: mean survival time, dose: 200.0 mg/kg/injection, schedule: Q01DX009 (ip), vehicle: other 98 % of control | endpoint: mean survival time, dose: 200.0 mg/kg/injection, schedule: Q04DX003 (ip), vehicle: other 97 % of control | endpoint: mean survival time, dose: 400.0 mg/kg/injection, schedule: Q01DX009 (ip), vehicle: other 98 % of control | endpoint: mean survival time, dose: 400.0 mg/kg/injection, schedule: Q04DX003 (ip), vehicle: other 95 % of control
